One may read the inhibition as the share of the control response that was lost under treatment.

SMILES strings stand for the structures.

The results in this text go back to patent US20130150340A1, “6-(4-Hydroxy-phenyl)-1H-pyrazolo[3,4-b]pyridine-4-carboxylic acid amide derivatives as kinase inhibitors” (SANOFI, priority 2011, published 2013).

The target in this assay is T1, human full-length recombinant PKC βII (Homo sapiens, UniProt P05771).
T1 construct: Active human full-length recombinant PKC βII; purchased Invitrogen GmbH, Darmstadt, Germany
In words: Determination of PKC βII inhibition (Caliper mobility-shift kinase assay). It is filed as biochemical. As to conditions: example compounds at a final concentration of 1.14 μM (±0.15 μM); 60 min incubation at 32° C.

T1 sequence (P05771 1-673 isoform P05771-2): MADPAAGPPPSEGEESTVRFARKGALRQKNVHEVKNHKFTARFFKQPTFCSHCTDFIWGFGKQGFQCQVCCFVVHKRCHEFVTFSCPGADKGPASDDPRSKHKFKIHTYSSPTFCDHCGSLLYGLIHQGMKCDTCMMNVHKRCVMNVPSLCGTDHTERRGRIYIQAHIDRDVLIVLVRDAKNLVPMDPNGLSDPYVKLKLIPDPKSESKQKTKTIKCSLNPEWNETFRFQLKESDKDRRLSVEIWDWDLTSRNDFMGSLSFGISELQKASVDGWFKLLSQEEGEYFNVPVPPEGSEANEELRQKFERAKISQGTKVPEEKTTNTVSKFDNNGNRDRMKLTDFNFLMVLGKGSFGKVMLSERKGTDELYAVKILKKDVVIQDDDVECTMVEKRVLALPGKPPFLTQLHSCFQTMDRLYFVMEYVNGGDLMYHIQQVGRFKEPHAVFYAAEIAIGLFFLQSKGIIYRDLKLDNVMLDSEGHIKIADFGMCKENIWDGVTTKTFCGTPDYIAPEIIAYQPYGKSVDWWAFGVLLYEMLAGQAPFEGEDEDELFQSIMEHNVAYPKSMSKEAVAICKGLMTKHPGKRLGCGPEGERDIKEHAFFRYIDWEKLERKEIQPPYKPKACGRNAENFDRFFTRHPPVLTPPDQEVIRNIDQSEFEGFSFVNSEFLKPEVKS

For the molecule `O=C(c1cc(-c2ccc(O)cc2)nc2[nH]ncc12)N1CCNCC1` [Example 4, [6-(4-Hydroxy-phenyl)-1H-pyrazolo[3,4-b]pyridin-4-yl]-piperazin-1-yl-methanone], the inhibition at 1.14 µM came out at 88%. Turning to `CC1CN(C(=O)c2cc(-c3ccc(O)cc3)nc3[nH]ncc23)CCN1` (centres unmarked) [Example 37, [6-(4-Hydroxy-phenyl)-1H-pyrazolo[3,4-b]pyridin-4-yl]-(3-methyl-piperazin-1-yl)-methanone], the inhibition at 1.14 µM was 91%. For `O=C(NC1CCNC1)c1cc(-c2ccc(O)cc2)nc2[nH]ncc12` (centres unmarked) [Example 5, 6-(4-Hydroxy-phenyl)-1H-pyrazolo[3,4-b]pyridine-4-carboxylic acid pyrrolidin-3-ylamide], the inhibition at 1.14 µM was 85%. On to `O=C(c1cc(-c2ccc(O)cc2)nc2[nH]ncc12)N1CCC2(CNCCO2)C1` (centres unmarked) [Example 31, [6-(4-Hydroxy-phenyl)-1H-pyrazolo[3,4-b]pyridin-4-yl]-(6-oxa-2,9-diaza-spiro[4.5]dec-2-yl)-methanone], for which the inhibition at 1.14 µM was determined as 53%. The value for `NC1CCCC(NC(=O)c2cc(-c3ccc(O)cc3)nc3[nH]ncc23)C1` (centres unmarked) [Example 33, 6-(4-Hydroxy-phenyl)-1H-pyrazolo[3,4-b]pyridine-4-carboxylic acid (3-amino-cyclohexyl)-amide] was 87%; that for `O=C(c1cc(-c2ccc(O)cc2)nc2[nH]ncc12)N1CCC2(CC1)CNc1ccccc12` [Example 49] was 28%; that for `O=C(NC1CN2CCC1CC2)c1cc(-c2ccc(O)cc2)nc2[nH]ncc12` (centres unmarked) [Example 72, 6-(4-Hydroxy-phenyl)-1H-pyrazolo[3,4-b]pyridine-4-carboxylic acid (1-aza-bicyclo[2.2.2]oct-3-yl)-amide] was 78%. Under `O=C(c1cc(-c2ccc(O)cc2)nc2[nH]ncc12)N1CCC2(CC1)CNC2` [Example 21, (2,7-Diaza-spiro[3.5]non-7-yl)-[6-(4-hydroxy-phenyl)-1H-pyrazolo[3,4-b]pyridin-4-yl]-methanone] stands 59%.
